Measurements reported in PMC10823468, “Design, Synthesis, and Evaluation of New 1H-Benzo[d]imidazole Based PqsR Inhibitors as Adjuvant Therapy for Pseudomonas aeruginosa Infections” (Journal of Medicinal Chemistry, 2024).

Legend:
[1] = tested on: PqsR (PqsR-controlled pqsA promoter, PAO1-L mCTX::PpqsA-lux); assay: Bioluminescent reporter assay, PAO1-L mCTX::PpqsA-lux; format: cell-based, Pseudomonas aeruginosa; details: Pseudomonas aeruginosa, PAO1, read-out: IC50 (μM) PAO1-L mCTX::PpqsA-lux
Procedure: (§1) An extensive SAR was performed on 6a to investigate the role of substitutions around various positions of the benzimidazole ring (groups R1–R3) as well as the aromatic tail (groups R4–R5) to fine-tune the potency of this series (6a–u) (Table 2). The activity of these analogues to inhibit the pqs QS system was evaluated in the PAO1-L and PA14 strains (that belong to the two major P. aeruginosa genomic lineages), both harboring a chromosomally integrated mCTX::PpqsA-lux transcriptional fusion to report for the activity of pqs system. Successful pharmacological blocking of AQ signal reception at the level of PqsR leads to a reduced transcription of the pqsA-lux genes and ultimately reduction in the luminescence readout.
(§2) Strains PA14 mCTX::PpqsA-lux and PAO1-L mCTX::PpqsA-lux were used to detect PqsR-controlled activation of the pqsA promoter, as previously described,[45] and the assay was performed according to a published method.[46] For initial screening, the compounds were tested at a concentration of 10 μM, which was prepared from a 10 mM stock, in DMSO.

[2] = tested on: A549 human lung epithelial carcinoma cell line; assay: A549 cytotoxicity assay (resazurin / alamar blue); format: cell-based; details: at concentrations up to 100 μM (1, 50, 100 μM), 24 h
Procedure: Establishing the safety profile of new chemical entities is paramount for further drug development. […] The assay employed resazurin reduction, a sensitive fluorometric assay widely used as a standard methodology in drug discovery research.[35] This assay relies on the ability of living cells to reduce resazurin to the fluorescent compound, resorufin, which indicates the rate of the metabolic activity as a means to quantify cell viability.
Cell viability was assessed according to Nimesh et al.[51] on A549 adenocarcinomic human alveolar basal epithelial cell line. The viability of the A549 cell line was assessed after overnight incubation with three concentrations (1, 50, and 100 μM) of the corresponding compound using alamar blue (resazurin) dye. Cells were maintained in the Dulbecco’s Modified Essential Medium (DMEM) supplemented with 10% fetal bovine serum (FBS) and 1% penicillin–streptomycin–neomycin (PSN). After that, 100 μL of suspended cells with a final concentration (1 × 10^4 cells/wall) were seeded in 96-well plates with 100 μL of (1, 50, 100 μM) concentrations of the tested compound was dispensed in sextuplicate. […] The plates were further incubated for 4–6 h and the intensity of the fluorescence was measured using an excitation light of 510 nm and measuring the fluorescence output at 590 nm. The cell viability in each well was normalized to the DMSO reading.

[3] = set-up: method as in PMID 33073099; details: rat microsomes; cited from earlier work
[4] = tested on: PqsR (PqsR-controlled pqsA promoter, PA14 mCTX::PpqsA-lux); assay: Bioluminescent reporter assay, PA14 mCTX::PpqsA-lux; format: cell-based; details: Pseudomonas aeruginosa, PA14, read-out: IC50 (μM) PA14 mCTX::PpqsA-lux
Procedure: as §1, §2

PAO1-L biofilms = assay: Biofilm viability assay, method 1 (ciprofloxacin, LIVE/DEAD, CLSM); format: cell-based, Pseudomonas aeruginosa; details: 6 and 24 h
Procedure: Biofilms are bacterial communities that are highly tolerant to antibiotics.[33] […] Therefore, pharmacological interference with the pqs machinery could sensitize PA biofilms to antibiotics.[34] To evaluate this effect, PAO1-L biofilms were grown for […] in the presence of 6f (method 1). Following treatment with the broad-spectrum antibiotic ciprofloxacin (Cip), the viability of biofilm bacteria was determined using LIVE/DEAD BacLight staining and confocal laser scanning microscopy (CLSM). The effect of 6f on biofilm viability as a single treatment or in combination with subinhibitory concentration of Cip was examined at two different time points (6 and 24 h after treatment) to establish whether this PqsR antagonist enhanced the activity of the antibiotic. […] It is noteworthy that the effect was greater at 6 h treatment compared with 24 h.
Figure 6 (A) Representative CLSM 3D Z-stack images of PAO1-L biofilms after 24 h growth with or without 6f and further treatment for 6 or 24 h with no treatment (control), 6f (10 μM), ciprofloxacin (Cip: 60 μg/mL), or a combination of 6f and Cip (10 μM and 60 μg/mL, respectively). Live bacteria are depicted in green (SYTO9 dye) and dead cells are shown in red color (propidium iodide stain). (B) Biofilm viability assay. Bar chart showing PAO1-L biofilm viability quantified after treatment with different conditions for 6 or 24 h. […]

Compound: CC(C)n1c(NCC(O)COc2ccc(CC#N)cc2)nc2ccc(Cl)cc21 (stereo not drawn) [Compound 6f, 2-(4-(3-((6-Chloro-1-isopropyl-1H-benzo[d]imidazol-2-yl)amino)-2-hydroxypropoxy)phenyl) Acetonitrile]
- IC50 [1]: 0.07 ± 0.02 µM
- cytotoxicity for A549 cells [2]: not cytotoxic
- half-life [3]: relatively short
- IC50 [4]: 0.09 ± 0.01 µM
- biofilm viability, combination with ciprofloxacin (PAO1-L biofilms; 6f 10 μM + Cip 60 μg/mL): significant potentiation of antibiotic activity
- biofilm viability, single treatment (PAO1-L biofilms; 6f 10 μM alone): no significant effect
